Experimental data reported in patent US20240252488A1 (KOREA RESEARCH INSTITUTE OF CHEMICAL TECHNOLOGY, priority 2020, published 2024).

How the values were obtained:
FADD−/− Jurkat cells = test: Necroptosis inhibition assay, TNF-α-induced necroptosis (CellTiter-Glo 2.0); assay type: cell-based, human; conditions: TNF-α 15 ng/mL; for Necroptosis inhibition assay (Rescue %) 1 μM: compound 1 μM; for Necroptosis inhibition assay (Rescue %) 10 μM: compound 10 μM
How it was run: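 Necroptosis was triggered by TNF-α at 15 ng/mL final following 30 minutes of compound exposure (0.1, 1 or 10 μM final). Incubation ran 20 to 24 hours at 37° C under 5% CO2; cell ATP was then quantified by luminescence.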

MLKL [1] = biological target: T1, MLKL (Homo sapiens, UniProt Q8NB16); test: Measurement of binding affinity with MLKL receptor (competitive binding assay, Kd); set-up: made in house; host or cells: HEK 293 cell line (T7 phage in E. coli BL21-derived host is also described)
T1 sequence (Q8NB16 1-471): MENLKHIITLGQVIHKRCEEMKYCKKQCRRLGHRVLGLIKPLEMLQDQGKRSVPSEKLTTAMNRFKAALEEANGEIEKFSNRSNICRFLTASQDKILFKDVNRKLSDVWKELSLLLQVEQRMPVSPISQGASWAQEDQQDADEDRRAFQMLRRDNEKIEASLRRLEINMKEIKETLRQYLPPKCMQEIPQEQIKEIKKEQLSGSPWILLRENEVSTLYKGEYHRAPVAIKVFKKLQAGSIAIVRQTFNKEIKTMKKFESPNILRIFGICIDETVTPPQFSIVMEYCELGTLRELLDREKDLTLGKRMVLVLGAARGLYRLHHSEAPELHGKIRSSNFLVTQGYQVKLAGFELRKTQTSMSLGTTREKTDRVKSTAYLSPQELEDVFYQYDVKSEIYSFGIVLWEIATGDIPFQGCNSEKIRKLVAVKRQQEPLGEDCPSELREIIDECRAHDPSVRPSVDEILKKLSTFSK
How it was run: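 Competition binding of kinase tagged with DNA for qPCR detection, expressed in HEK 293 cells, against immobilized ligand on beads. Final DMSO 0.9%. Kd derived from kinase amount in eluates measured by qPCR.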

MLKL [2] = biological target: T1, MLKL; test: MLKL degradation assay in HepG2 cell line (western blot); assay type: cell-based; set-up: endogenous in cells; host or cells: HepG2 or HaCaT; conditions: cell line not given; for Degradation assay (Degradation %) 1 μM: compound 1 μM; for Degradation assay (Degradation %) 10 μM: compound 10 μM
How it was run: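 After treating HepG2 with test compounds (final 1 μM or 10 μM) for 20-24 h, we lysed cells, equalized protein by BCA and probed MLKL by overnight primary antibody at 4 °C followed by chemiluminescent detection.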

Kd (MLKL [1]) [nM]	Degradation assay (Degradation %) 1 μM (MLKL [2]) [%]	Degradation assay (Degradation %) 10 μM (MLKL [2]) [%]	SMILES	Necroptosis inhibition assay (Rescue %) 1 μM (FADD−/− Jurkat cells) [%]	Necroptosis inhibition assay (Rescue %) 10 μM (FADD−/− Jurkat cells) [%]
1.9	81.59	58.63	Nc1ncc(-c2cnn(C3CCN(CC4CCN(C(=O)CCc5cccc6c5CN(C5CCC(=O)NC5=O)C6=O)CC4)CC3)c2)nc1C(=O)O[C@@H](C(=O)Nc1ccc(F)cc1)c1ccccc1 (stereo partly drawn) [TDH-384, (R)-2-((4-fluorophenyl)amino)-2-oxo-1-phenylethyl 3-amino-6-(1-(1-((1-(3-(2-(2,6-dioxopiperidin-3-yl)-1-oxoisoindolin-4-yl)propanoyl)piperidin-4-yl)methyl)piperidin-4-yl)-1H-pyrazol-4-yl)pyrazine-2-carboxylate]	39.08	9.67
0.76	94.85	85.11	Nc1ncc(-c2cnn(C3CCN(CCC4CCN(C(=O)CCc5cccc6c5CN(C5CCC(=O)NC5=O)C6=O)CC4)CC3)c2)nc1C(=O)O[C@@H](C(=O)Nc1ccc(F)cc1)c1ccccc1 (stereo partly drawn) [TDH-385, (R)-2-((4-fluorophenyl)amino)-2-oxo-1-phenylethyl 3-amino-6-(1-(1-(2-(1-(3-(2-(2,6-dioxopiperidin-3-yl)-1-oxoisoindolin-4-yl)propanoyl)piperidin-4-yl)ethyl)piperidin-4-yl)-1H-pyrazol-4-yl)pyrazine-2-carboxylate]	53.62	14.09
0.93	79.68	71.14	Nc1ncc(-c2cnn(C3CCN(CCCN4CCN(C(=O)CCc5cccc6c5CN(C5CCC(=O)NC5=O)C6=O)CC4)CC3)c2)nc1C(=O)O[C@@H](C(=O)Nc1ccc(F)cc1)c1ccccc1 (stereo partly drawn) [TDH-386, (R)-2-((4-fluorophenyl)amino)-2-oxo-1-phenylethyl 3-amino-6-(1-(1-(3-(4-(3-(2-(2,6-dioxopiperidin-3-yl)-1-oxoisoindolin-4-yl)propanoyl)piperazin-1-yl)propyl)piperidin-4-yl)-1H-pyrazol-4-yl)pyrazine-2-carboxylate]	34.89	20.76
1.6	85.77	66.9	Nc1ncc(-c2cnn(C3CCN(CCOC4CCN(C(=O)CCc5cccc6c5CN(C5CCC(=O)NC5=O)C6=O)CC4)CC3)c2)nc1C(=O)O[C@@H](C(=O)Nc1ccc(F)cc1)c1ccccc1 (stereo partly drawn) [TDH-387, (R)-2-((4-fluorophenyl)amino)-2-oxo-1-phenylethyl 3-amino-6-(1-(1-(2-((1-(3-(2-(2,6-dioxopiperidin-3-yl)-1-oxoisoindolin-4-yl)propanoyl)piperidin-4-yl)oxy)ethyl)piperidin-4-yl)-1H-pyrazol-4-yl)pyrazine-2-carboxylate]	37.82	25.00
2.3	68.53	80.04	Nc1ncc(-c2cnn(C3CCN(C(=O)C4CCN(C(=O)CCc5cccc6c5CN(C5CCC(=O)NC5=O)C6=O)CC4)CC3)c2)nc1C(=O)O[C@@H](C(=O)Nc1ccc(F)cc1)c1ccccc1 (stereo partly drawn) [TDH-388, (R)-2-((4-fluorophenyl)amino)-2-oxo-1-phenylethyl 3-amino-6-(1-(1-(1-(3-(2-(2,6-dioxopiperidin-3-yl)-1-oxoisoindolin-4-yl)propanoyl)piperidine-4-carbonyl)piperidin-4-yl)-1H-pyrazol-4-yl)pyrazine-2-carboxylate]	22.66	22.49
2.6	80.07	93.00	Nc1ncc(-c2cnn(C3CCN(CC4CN(C(=O)COc5ccc6c(c5)C(=O)N(C5CCC(=O)NC5=O)C6=O)CCO4)CC3)c2)nc1C(=O)O[C@@H](C(=O)Nc1ccc(F)cc1)c1ccccc1 (stereo partly drawn) [TDH-390, (R)-2-((4-fluorophenyl)amino)-2-oxo-1-phenylethyl 3-amino-6-(1-(1-((4-(2-((2-(2,6-dioxopiperidin-3-yl)-1,3-dioxoisoindolin-5-yl)oxy)acetyl)morpholin-2-yl)methyl)piperidin-4-yl)-1H-pyrazol-4-yl)pyrazine-2-carboxylate]	46.50	36.13
0.99	73.39	82.10	Nc1ncc(-c2cnn(C3CCN(C(=O)COC4CCN(C(=O)COc5cccc6c5C(=O)N(C5CCC(=O)NC5=O)C6=O)CC4)CC3)c2)nc1C(=O)O[C@@H](C(=O)Nc1ccc(F)cc1)c1ccccc1 (stereo partly drawn) [TDH-393, (R)-2-((4-fluorophenyl)amino)-2-oxo-1-phenylethyl 3-amino-6-(1-(1-(2-((1-(2-((2-(2,6-dioxopiperidin-3-yl)-1,3-dioxoisoindolin-4-yl)oxy)acetyl)piperidin-4-yl)oxy)acetyl)piperidin-4-yl)-1H-pyrazol-4-yl)pyrazine-2-carboxylate]	27.21	38.01
2.8	60.83	94.76	Nc1ncc(-c2cnn(C3CCN(C(=O)COC4CCN(C(=O)COc5ccc6c(c5)C(=O)N(C5CCC(=O)NC5=O)C6=O)CC4)CC3)c2)nc1C(=O)O[C@@H](C(=O)Nc1ccc(F)cc1)c1ccccc1 (stereo partly drawn) [TDH-394, (R)-2-((4-fluorophenyl)amino)-2-oxo-1-phenylethyl 3-amino-6-(1-(1-(2-((1-(2-((2-(2,6-dioxopiperidin-3-yl)-1,3-dioxoisoindolin-5-yl)oxy)acetyl)piperidin-4-yl)oxy)acetyl)piperidin-4-yl)-1H-pyrazol-4-yl)pyrazine-2-carboxylate]	47.22	53.54
6.1	88.76	89.67	Nc1ncc(-c2cnn(C3CCN(C(=O)COC4CCN(C(=O)CNc5cccc6c5C(=O)N(C5CCC(=O)NC5=O)C6=O)CC4)CC3)c2)nc1C(=O)O[C@@H](C(=O)Nc1ccc(F)cc1)c1ccccc1 (stereo partly drawn) [TDH-395, (R)-2-((4-fluorophenyl)amino)-2-oxo-1-phenylethyl 3-amino-6-(1-(1-(2-((1-((2-(2,6-dioxopiperidin-3-yl)-1,3-dioxoisoindolin-4-yl)glycyl)piperidin-4-yl)oxy)acetyl)piperidin-4-yl)-1H-pyrazol-4-yl)pyrazine-2-carboxylate]	34.73	37.15
4.2	3.42	88.49	Nc1ncc(-c2cnn(C3CCN(C(=O)COC4CCN(C(=O)CNc5ccc6c(c5)C(=O)N(C5CCC(=O)NC5=O)C6=O)CC4)CC3)c2)nc1C(=O)O[C@@H](C(=O)Nc1ccc(F)cc1)c1ccccc1 (stereo partly drawn) [TDH-396, (R)-2-((4-fluorophenyl)amino)-2-oxo-1-phenylethyl 3-amino-6-(1-(1-(2-((1-((2-(2,6-dioxopiperidin-3-yl)-1,3-dioxoisoindolin-5-yl)glycyl)piperidin-4-yl)oxy)acetyl)piperidin-4-yl)-1H-pyrazol-4-yl)pyrazine-2-carboxylate]	53.20	46.28
2.7	87.39	79.77	Nc1ncc(-c2cnn(C3CCN(C(=O)COC4CCN(C(=O)C5CCN(c6cccc7c6C(=O)N(C6CCC(=O)NC6=O)C7=O)CC5)CC4)CC3)c2)nc1C(=O)O[C@@H](C(=O)Nc1ccc(F)cc1)c1ccccc1 (stereo partly drawn) [TDH-397, (R)-2-((4-fluorophenyl)amino)-2-oxo-1-phenylethyl 3-amino-6-(1-(1-(2-((1-(1-(2-(2,6-dioxopiperidin-3-yl)-1,3-dioxoisoindolin-4-yl)piperidine-4-carbonyl)piperidin-4-yl)oxy)acetyl)piperidin-4-yl)-1H-pyrazol-4-yl)pyrazine-2-carboxylate]	53.83	37.24
